Laboratory results from US8980879B2 (AbbVie Inc., priority 2013, dated 2015).

Columns and labels:
BRD4 (BDII_E352-M457) = biological target: T1, BRD4 (BDII_E352-M457) (Homo sapiens, UniProt O60885); assay: TR-FRET bromodomain binding assay, BRD4 second bromodomain
T1 construct: protocol; made in house
Method: (§1) A time-resolved fluorescence resonance energy transfer (TR-FRET) assay was used to determine the affinities of compounds of the Examples listed in Table 1 for each bromodomain of BRD4. His-tagged first (BD1: amino acids K57-E168) and second (BD2: amino acids E352-E168) bromodomains of BRD4 were expressed and purified. An Alexa647-labeled BET-inhibitor was used as the fluorescent probe in the assay.
(§2) Compound dilution series were prepared in DMSO via an approximately 3-fold serial dilution from one of the following:
(§3) Assay method D: 500 μM-8.5 nM
(§4) Assay method E: 0.47 mM to 7.8 nM
(§5) Assay method F: 250 μM-4.2 nM
(§6) Assay method G: 0.047 mM to 0.78 nM
(§7) or 5-fold serial dilution from one of the following:
(§8) Assay method A: 2.5 mM-800 nM
(§9) Assay method B: 2.5 mM-797 nM
(§10) For Assay methods A, C, D, and F: Compounds were then diluted 6:100 in assay buffer (20 mM Sodium Phosphate, pH 6.0, 50 mM NaCl, 1 mM Ethylenediaminetetraacetic acid, 0.01% Triton X-100, 1 mM DL-Dithiothreitol) to yield 3× working solutions. Six microliters (μL) of the working solution was then transferred to white, low-volume assay plates (Costar #3673). A 1.5× assay mixture containing His-tagged bromodomain, Europium-conjugated anti-His antibody (Invitrogen PV5596) and the Alexa-647-conjugated probe molecule was also prepared. Twelve μL of this solution were added to the assay plate to reach a final volume of 18 μL.
(§11) For Assay methods B, E, and G: Compound dilutions were added directly into white, low-volume assay plates (Perkin Elmer Proxiplate 384 Plus#6008280) using a Labcyte Echo in conjunction with Labcyte Access and Thermo Multidrop CombinL robotics. Compounds were then suspended in eight microliters (μL) of assay buffer (20 mM Sodium Phosphate, pH 6.0, 50 mM NaCl, 1 mM Ethylenediaminetetraacetic acid disodium salt dihydrate, 0.01% Triton X-100, 1 mM DL-Dithiothreitol) containing His-tagged bromodomain, Europium-conjugated anti-His antibody (Invitrogen PV5596) and Alexa-647-conjugated probe.
(§12) The final concentration of 1× assay mixture for assay methods A, B, C, D, E, F, and G contains 2% DMSO, 8 nM His-tagged bromodomain, 1 nM Europium-conjugated anti-His-tag antibody and 100 nM or 30 nM probe (for BDI or BDII, respectively) and compound concentration in the range of: 50 μM-16 nM for method A, 49.02 μM-15.63 nM for method B, 25 μM-423 pM for method C, 10 μM-169 pM for method D, 9.19 μM 150 pM for method E, 5 μM-85 pM for method F, and 0.92 μM-15 pM for method G.
(§13) After a one-hour equilibration at room temperature, TR-FRET ratios were determined using an Envision multilabel plate reader (Ex 340, Em 495/520).
(§14) TR-FRET data were normalized to the means of 24 no-compound controls (“high”) and 8 controls containing 1 μM un-labeled probe (“low”). Percent inhibition was plotted as a function of compound concentration and the data were fit with the 4 parameter logistic equation to obtain IC50s Inhibition constants (Ki) were calculated from the IC50s, probe Kd and probe concentration. Typical Z′ values were between 0.65 and 0.75. The minimum significant ratio was determined to evaluate assay reproducibility (Eastwood et al., (2006) J Biomol Screen, 11: 253-261). The MSR was determined to be 2.03 for BDI and 1.93 for BDII, and a moving MSR (last six run MSR overtime) for both BDI and BDII was typically <3.

[1] = tested on: breast cancer cell line MX-1; assay: MX-1 cell line proliferation assay; format: cell-based; details: Homo sapiens, MX1; MX-1 cells, 3-day (72 h) proliferation, Cell Titer Glo; read-out: Cellular proliferation: EC50
Method: MX-1 Cell Line Proliferation Assay
The impact of compounds of the Examples on cancer cell proliferation was determined using the breast cancer cell line MX-1 (ATCC) in a 3-day proliferation assay and the data are reported in Table 1. MX-1 cells were maintained in RPMI 1640 medium (Sigma) supplemented with 10% FBS at 37 C.° and an atmosphere of 5% CO2. For compound testing, MX-1 cells were plated in 96-well black bottom plates at a density of 5000 cells/well in 90 μL of culture media and incubated at 37° overnight to allow cell adhesion and spreading. Compound dilution series were prepared in DMSO via a 3-fold serial dilution from 3 mM to 0.1 μM. The DMSO dilution series were then diluted 1:100 in phosphate buffered saline, and 10 μL of the resulted solution were added to the appropriate wells of the MX-1 cell plate. The final compound concentrations in the wells were 3, 1, 0.3, 0.1, 0.03, 0.01, 0.003, 0.001, 0.0003 and 0.0001 μM.
Luminescence readings from the Cell Titer Glo assay were normalized to the DMSO treated cells and analyzed using the GraphPad Prism software with sigmoidal curve fitting to obtain EC50s. The minimum significant ratio (MSR) was determined to evaluate assay reproducibility (Eastwood et al., (2006) J Biomol Screen, 11: 253-261). The overall MSR was determined to be 2.1 and a moving MSR (last six run MSR overtime) has been <2.

BRD4 (BDI_K57-E168) = biological target: T2, BRD4 (BDI_K57-E168) (Homo sapiens, UniProt O60885); assay: TR-FRET bromodomain binding assay, BRD4 first bromodomain; details: His-tagged BD1, 100 nM Alexa647 probe; assay protocol D or F as given per row in c1; Ki calculated from IC50
T2 construct: BD1: amino acids K57-E168; made in house
Method: as §1, §2, §3, §4, §5, §6, §7, §8, §9, §10, §11, §12, §13, §14

Structure (SMILES) | Ki (BRD4 (BDII_E352-M457)) [nM] | EC50 [1] [nM] | Ki (BRD4 (BDI_K57-E168)) [nM]
Cn1cc2c3c(c[nH]c(=O)c31)CN(c1ccc(F)cc1)c1ccc(C(=O)NCc3ccccc3)cc1-2 [Example 63] | 22 | 49.9 | 1.98
Cn1cc2c3c(c[nH]c(=O)c31)CN(c1ccc(F)cc1)c1ncc(NC(=O)Cc3ccc4c(c3)CCCO4)cc1-2 [Example 21] | 2.69 | 16.6 | 1.05
Cn1cc2c3c(c[nH]c(=O)c31)CN(c1ccc(F)cc1)c1ccc(N)cc1-2 [Example 23] | 7.54 | 4.79 | 1.38
CC(=O)Nc1ccc2c(c1)-c1cn(C)c3c(=O)[nH]cc(c13)CN2C1CCN(C(C)=O)CC1 [Example 77] | 112 | > 1000 | 4.6
Cn1cc2c3c(c[nH]c(=O)c31)CN(c1ccc(F)cc1)c1ccc(NC(=O)Cc3cc(Cl)ccc3Cl)cc1-2 [Example 50] | 33.1 | 63.7 | 5.94
Cn1cc2c3c(c[nH]c(=O)c31)CN(c1ccc(Cl)cc1)c1ncc(NS(C)(=O)=O)cc1-2 [Example 71] | 2.21 | 35.6 | 1.65
CCS(=O)(=O)Nc1cnc2c(c1)-c1cn(C)c3c(=O)[nH]cc(c13)CN2c1ccc(Cl)cc1 [Example 70] | 0.708 | 24.4 | 0.79
CCS(=O)(=O)Nc1cnc2c(c1)-c1cn(C)c3c(=O)[nH]cc(c13)CN2c1ccc(F)cc1F [Example 68] | 1.79 | 17.5 | 1.26
Cc1cccnc1CNc1ccc2c(c1)-c1cn(C)c3c(=O)[nH]cc(c13)CN2c1ccc(F)cc1 [Example 43] | 6.49 | 17.3 | 1.25
COc1ccc(F)cc1CC(=O)Nc1ccc2c(c1)-c1cn(C)c3c(=O)[nH]cc(c13)CN2c1ccc(F)cc1 [Example 65] | 44.9 | 55.5 | 3.92
Cn1cc2c3c(c[nH]c(=O)c31)CN(c1ccc(F)cc1)c1ccc(C(=O)NCc3cc(F)ccc3Br)cc1-2 [Example 58] | 12.7 | 63.3 | 1.83
Cn1cncc1CNc1ccc2c(c1)-c1cn(C)c3c(=O)[nH]cc(c13)CN2c1ccc(F)cc1 [Example 42] | 13.4 | 9.83 | 2.07
Cn1cc2c3c(c[nH]c(=O)c31)CN(c1ccc(F)cc1)c1ncc(F)cc1-2 [Example 16] | 5.07 | 5.55 | 0.79
COCCC1c2c[nH]c(=O)c3c2c(cn3C)-c2cc(CS(C)(=O)=O)ccc2N1c1ccc(F)cc1 (stereo not drawn) [Example 8] | 25.2 | 46.6 | 5.81
CCS(=O)(=O)Nc1ccc2c(c1)-c1cn(C)c3c(=O)[nH]cc(c13)CN2c1ccc(F)cc1 [Example 12] | 4.3 | 5.63 | 2.18
CC(=O)Nc1ccc(S(=O)(=O)Nc2ccc3c(c2)-c2cn(C)c4c(=O)[nH]cc(c24)CN3c2ccc(F)cc2)cc1 [Example 27] | 1.73 | 8.56 | 0.2
Cn1cc2c3c(c[nH]c(=O)c31)CN(c1ccc(F)cc1)c1ccc(NC(=O)Cc3cc(F)ccc3F)cc1-2 [Example 52] | 55.9 | 55.9 | 2.76

Structure (SMILES) | Ki (BRD4 (BDII_E352-M457)) [nM] | EC50 [1] [nM] | Ki (BRD4 (BDI_K57-E168)) [nM]
Cn1cc2c3c(c[nH]c(=O)c31)CN(c1ccc(F)cc1)c1ccc(NC(=O)Nc3cccc(Oc4ccccc4)c3)cc1-2 [Example 44] | > 408 | > 1000 | 53.3
Cn1cc2c3c(c[nH]c(=O)c31)CN(c1ccc(F)cc1F)c1c-2cc(CS(C)(=O)=O)cc1C1CC1 [Example 78] | 0.85 | 6.28 | 1.29
Cn1cc2c3c(c[nH]c(=O)c31)CN(c1ccc(F)cc1)c1ccc(C(=O)NCc3cc(F)ccc3Cl)cc1-2 [Example 60] | 46.1 | 75.5 | 3.2
Cn1cc2c3c(c[nH]c(=O)c31)C(CC1CCOCC1)N(c1ccc(F)cc1)c1ccc(CS(C)(=O)=O)cc1-2 (stereo not drawn) [Example 10] | 57.4 | 81.6 | 8.23
COC(=O)N1Cc2c[nH]c(=O)c3c2c(cn3C)-c2cc(CS(C)(=O)=O)ccc21 [Example 81] | 11.1 | 77.9 | 4.97
Cc1ccc(F)cc1CNC(=O)c1ccc2c(c1)-c1cn(C)c3c(=O)[nH]cc(c13)CN2c1ccc(F)cc1 [Example 57] | 29 | 54.9 | 1.72
Cn1cc2c3c(c[nH]c(=O)c31)C(c1ccccc1)Nc1ccc(CS(C)(=O)=O)cc1-2 (stereo not drawn) [Example 25] | 124 | > 1000 | 192
COC(=O)CCCNc1ccc2c(c1)-c1cn(C)c3c(=O)[nH]cc(c13)CN2c1ccc(F)cc1 [Example 41] | 12.5 | 55.6 | 1.73
CCn1ccc(CNc2ccc3c(c2)-c2cn(C)c4c(=O)[nH]cc(c24)CN3c2ccc(F)cc2)n1 [Example 37] | 7.42 | 19 | 1.07
CCS(=O)(=O)Nc1ccc2c(c1)-c1cn(C)c3c(=O)[nH]cc(c13)CN2c1ccccn1 [Example 82] | 1.47 | 4.93 | 0.83
Cn1cc2c3c(c[nH]c(=O)c31)CN(c1ccc(F)cc1)c1ccc(NCCCn3cccn3)cc1-2 [Example 39] | 12.3 | 23.2 | 1.94
Cn1cc2c3c(c[nH]c(=O)c31)CN(c1ccc(Cl)cc1)c1ncc(N)cc1-2 [Example 69] | 1.89 | 4.4 | 0.78
Cn1cc2c3c(c[nH]c(=O)c31)CN(c1ccc(F)cc1)c1ccc(NC(=O)Cc3cc(F)ccc3[N+](=O)[O-])cc1-2 [Example 66] | 30.1 | 44.6 | 2.14
Cn1cc2c3c(c[nH]c(=O)c31)CN(c1ccc(F)cc1)c1ncc(NC(=O)Cc3ccc(Cl)cc3F)cc1-2 [Example 20] | 4.69 | 36.5 | 1.76
Cn1cc2c3c(c[nH]c(=O)c31)CN(c1ccc(F)cc1)c1ccc(NC(=O)Cc3cc(F)ccc3Cl)cc1-2 [Example 30] | 21.8 | 51.2 | 3.53
Cn1cc2c3c(c[nH]c(=O)c31)CN(C(=O)C1CC1)c1ccc(CS(C)(=O)=O)cc1-2 [Example 6] | 2.44 | 16.4 | 3.53
Cc1cc(CC(=O)Nc2cnc3c(c2)-c2cn(C)c4c(=O)[nH]cc(c24)CN3c2ccc(F)cc2)nn1C [Example 18] | 3.46 | 7.02 | 1.82
